For 29 compounds, IC50 results are on record in patent US20260207602A1, “EGFR INHIBITORS” (Blueprint Medicines Corporation, priority 2022, published 2026).

Structures are written as SMILES.

This experiment has as its target T1, EGFR L858R (Homo sapiens, UniProt P00533, L858R).
T1 construct: purchased SignalChem E10-122BG
The experiment in a line: Biochemical EGFR inhibition assay (Caliper mobility shift), EGFR L858R. The note with it: biochemical Caliper mobility shift assay, EGFR L858R enzyme; read-out: Enz EGFR L858R IC50. The procedure: Inhibitory effects of the compounds of the disclosure were measured in biochemical assays that measure the phosphorylation activity of EGFR enzyme phosphorylates 2.5 micromolar 5-FAM-[…]-CONH2 peptide substrate (ProfilerPro Kinase Peptide Substrate 22, PerkinElmer, Part #760366) in the presence of adenosine-5′-triphosphate (ATP) and varying concentrations of the test compound in 100 mM 2-[4-(2-hydroxyethyl)piperazin-1-yl]ethanesulfonic acid (HEPES), pH 7.5, 10 mM MgCl2, 0.015% Brij-35, 1 mM dithiothreitol (DTT), 1.0% dimehylsulfoxide (DMSO). Assays were performed at 1.0 mM ATP or at ATP Km of the EGFR enzymes. Reactions proceeded until between 10% to 20% total peptides were phosphorylated at room temperature (25° C.) and were terminated with 35 mM 2,2′,2″,2′″-(ethane-1,2-diyldinitrilo)tetraacetic acid (EDTA). Product was detected using the Caliper mobility shift detection method where the phosphorylated peptide (product) and substrate were electrophoretically separated and measured. Percent activity was plotted against log concentration of compound and points to generate an apparent IC50. The following enzyme forms of • EGFR were examples that were used in these assays: • EGFR WT (SignalChem, E10-112G) • EGFR L858R (SignalChem, E10-122BG) • EGFR (d746-750) (SignalChem, E10-122JG) • EGFR L858R C797S (SignalChem, E10-122ZG) • EGFR (d746-750) C797S (SignalChem, E10-122TG)

In general, IC50 refers to the concentration needed to halve the response being measured.

T1 sequence (P00533 25-1210 L858R): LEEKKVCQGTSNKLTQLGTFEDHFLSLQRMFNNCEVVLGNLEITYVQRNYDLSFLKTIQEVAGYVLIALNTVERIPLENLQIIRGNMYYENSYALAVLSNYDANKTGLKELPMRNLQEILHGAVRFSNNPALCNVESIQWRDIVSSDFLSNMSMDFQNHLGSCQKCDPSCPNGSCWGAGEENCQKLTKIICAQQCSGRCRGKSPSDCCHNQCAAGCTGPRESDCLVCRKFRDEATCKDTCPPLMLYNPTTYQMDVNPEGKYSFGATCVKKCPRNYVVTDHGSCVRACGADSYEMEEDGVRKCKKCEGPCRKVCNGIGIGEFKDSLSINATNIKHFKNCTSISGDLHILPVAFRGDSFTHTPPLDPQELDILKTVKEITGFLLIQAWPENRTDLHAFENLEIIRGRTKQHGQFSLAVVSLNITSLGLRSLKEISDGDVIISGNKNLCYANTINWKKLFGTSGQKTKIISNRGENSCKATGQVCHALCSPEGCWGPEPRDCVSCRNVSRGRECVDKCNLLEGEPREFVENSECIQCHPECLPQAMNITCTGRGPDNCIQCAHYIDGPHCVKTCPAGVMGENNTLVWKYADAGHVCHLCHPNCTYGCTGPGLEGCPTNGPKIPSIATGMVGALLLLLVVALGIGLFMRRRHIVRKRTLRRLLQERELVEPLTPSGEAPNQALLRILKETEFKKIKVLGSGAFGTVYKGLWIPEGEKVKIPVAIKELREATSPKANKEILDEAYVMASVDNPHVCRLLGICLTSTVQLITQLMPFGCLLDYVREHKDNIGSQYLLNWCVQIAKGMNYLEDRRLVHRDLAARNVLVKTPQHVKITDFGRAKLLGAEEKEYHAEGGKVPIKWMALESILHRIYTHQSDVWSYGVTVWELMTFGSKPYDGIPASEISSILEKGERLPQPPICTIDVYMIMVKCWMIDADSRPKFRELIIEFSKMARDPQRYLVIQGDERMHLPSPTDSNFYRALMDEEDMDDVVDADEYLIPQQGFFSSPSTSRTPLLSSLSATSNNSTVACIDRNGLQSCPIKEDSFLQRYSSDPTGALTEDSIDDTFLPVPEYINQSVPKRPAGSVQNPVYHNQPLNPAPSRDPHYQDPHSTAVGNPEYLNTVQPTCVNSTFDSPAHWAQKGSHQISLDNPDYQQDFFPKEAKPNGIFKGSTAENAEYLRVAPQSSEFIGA

For `C[C@@H](Oc1cc(-c2cnn(C)c2)cc2ncnc(Nc3ccc4ncsc4c3)c12)C(F)F` (single isomer, unassigned) [Example 53], the IC50 was not above 10 nM.
In the case of `COc1nn(C)cc1-c1cc(O[C@H](C)C2COC2)c2c(Nc3ccc4ncsc4c3F)ncnc2c1` (single isomer, unassigned) [Example 79], the IC50 is not above 10 nM.
Turning to `C[C@@H](Oc1cc(-c2cnn(C)c2)cc2ncnc(Nc3ccc4ncsc4c3F)c12)C1(C)COC1` (single isomer, unassigned) [Example 87], the IC50 is not above 10 nM.
Consider `C[C@@H](Oc1cc(-c2cnn(C)c2)cc2ncnc(Nc3ccc4ncsc4c3F)c12)[C@H]1CCOC1` (single isomer, unassigned) [Example 89], for which the IC50 was not above 10 nM.
Turning to `CC[C@@H](Oc1cc(-c2cnn(C)c2)cc2ncnc(Nc3ccc4ncsc4c3F)c12)C1COC1` (single isomer, unassigned) [Example 93], the IC50 was not above 10 nM.
In the case of `COCC[C@@H](C)Oc1cc(-c2cnn(C)c2)cc2ncnc(Nc3ccc4ncsc4c3F)c12` (single isomer, unassigned) [Example 109], the IC50 was not above 10 nM.
With `COC[C@H](C)Oc1cc(N2CCN(C(C)C)C2=O)cc2ncnc(Nc3ccc4ncsc4c3)c12` (single isomer, unassigned) [Example 119], the IC50 was not above 10 nM.
For the compound `CC(Oc1cc(-c2cn[nH]c2)cc2ncnc(Nc3ccc4ncsc4c3)c12)C1COC1` (single isomer, unassigned) [Example 123], the concentration for half-maximal inhibition (IC50) is not above 10 nM.
As to `C[C@@H](Oc1cc(-c2cnn(CC(C)(C)O)c2)cc2ncnc(Nc3ccc4ncsc4c3)c12)C1COC1` (single isomer, unassigned) [Example 128], the IC50 was not above 10 nM.
As to `CN(C)C[C@@H](Oc1cc(-c2cnn(C)c2)cc2ncnc(Nc3ccc4ncsc4c3)c12)C(F)F` (single isomer, unassigned) [Example 152], the IC50 is not above 10 nM.
As to `C[C@H](CN(C)C)Oc1cc(N2CC[C@@H](C(C)(C)O)C2)cc2ncnc(Nc3ccc4ncsc4c3)c12` (single isomer, unassigned) [Example 156], the IC50 is not above 10 nM.
For `COc1nn(C)cc1-c1cc(O[C@H](C)C2COC2)c2c(Nc3ccc4ncsc4c3)ncnc2c1` (single isomer, unassigned) [Example 171], the IC50 is not above 10 nM.
Regarding `C[C@@H](Oc1cc(-c2cnn(C)c2)cc2ncnc(Nc3ccc4ncsc4c3)c12)[C@H]1CNCCO1` (single isomer, unassigned) [Example 208], the IC50 is not above 10 nM.
As to `C[C@@H](Oc1cc(-c2cnn(C)c2)cc2ncnc(Nc3ccc4ncsc4c3)c12)[C@H]1CN(C)CCO1` (single isomer, unassigned) [Example 210], the IC50 is not above 10 nM.
With `C[C@@H](Oc1cc(-c2cnn(C)c2)cc2ncnc(Nc3ccc4ncsc4c3F)c12)C(=O)N(C)C` (single isomer, unassigned) [Example 280] the figure was not above 10 nM.
Turning to `C[C@H](Oc1cc(-c2cnn(C)c2)cc2ncnc(Nc3ccc4ncsc4c3F)c12)C(=O)N1CCOCC1` (single isomer, unassigned) [Example 283], the IC50 was not above 10 nM.
Consider `COc1nn(C)cc1-c1cc(O[C@@H](C)C(=O)N(C)C)c2c(Nc3ccc4ncsc4c3F)ncnc2c1` (single isomer, unassigned) [Example 288], for which the 50% inhibitory concentration (IC50) is not above 10 nM.
Next, `C[C@H](CO)Oc1cc(-c2cnn(C)c2)cc2ncnc(Nc3ccc4ncsc4c3F)c12` (single isomer, unassigned) [Example 290]: not above 10 nM.
Regarding `C[C@@H](Oc1cc(-c2cnn(C(C)(C)CO)c2)cc2ncnc(Nc3ccc4ncsc4c3)c12)C1COC1` (single isomer, unassigned) [Example 292], the IC50 is not above 10 nM.
Regarding `C[C@H](CO)n1cc(-c2cc(O[C@H](C)C3COC3)c3c(Nc4ccc5ncsc5c4)ncnc3c2)cn1` (single isomer, unassigned) [Example 298], the IC50 was not above 10 nM.
For the compound `CN1CC[C@@H](Nc2cc3c(Nc4ccc5ncsc5c4)ncnc3cc2-c2ccn(C)n2)[C@H](F)C1` (single isomer, unassigned) [Example 328], the IC50 was not above 10 nM.
For `CN1C[C@H](F)C[C@H](Oc2cc(-c3cnn(C)c3)cc3ncnc(Nc4ccc5ncsc5c4)c23)C1` (single isomer, unassigned) [Example 337], the IC50 is not above 10 nM.
Consider `CN1CC[C@@H](Oc2cc(-c3cnn(C)c3)cc3ncnc(Nc4ccc5ncsc5c4)c23)[C@@H](F)C1` (single isomer, unassigned) [Example 341], for which the IC50 is not above 10 nM.
For the compound `CN1CC[C@H](Oc2cc(-c3cnn(C)c3)cc3ncnc(Nc4ccc5ncsc5c4)c23)[C@@H](F)C1` (single isomer, unassigned) [Example 345], the IC50 was not above 10 nM.
Next, `Cn1cc(-c2cc(O[C@H]3CCNC[C@@H]3F)c3c(Nc4ccc5ncsc5c4)ncnc3c2)cn1` (single isomer, unassigned) [Example 347]: not above 10 nM.
`COc1nn(C)cc1-c1cc(O[C@H]2CCNC[C@@H]2F)c2c(Nc3ccc4ncsc4c3)ncnc2c1` (single isomer, unassigned) [Example 361]: the IC50 is not above 10 nM.
In the case of `CN1CC[C@H](Nc2cc3c(Nc4ccc5ncsc5c4)ncnc3cc2-c2ccn(C)n2)[C@H](F)C1` (single isomer, unassigned) [Example A06, N4-(benzo[d]thiazol-6-yl)-N6-((3S,4R)-3-fluoro-1-methylpiperidin-4-yl)-7-(1-methyl-1H-pyrazol-3-yl)quinazoline-4,6-diamine or N4-(benzo[d]thiazol-6-yl)-N6-((3R,4S)-3-fluoro-1-methylpiperidin-4-yl)-7-(1-methyl-1H-pyrazol-3-yl)quinazoline-4,6-diamine], the half-maximal inhibitory concentration (IC50) was not above 10 nM.
With `Cn1cc(-c2cc(O[C@@H]3CC[C@@H]3O)c3c(Nc4ccc5ncsc5c4)ncnc3c2)cn1` (single isomer, unassigned) [Example A52] the figure was not above 10 nM; with `CN1CC[C@H](Oc2cc(-c3cnn(C)c3)cc3ncnc(Nc4ccc5ncsc5c4F)c23)C1` [Example 16, (S)-7-fluoro-N-(7-(1-methyl-1H-pyrazol-4-yl)-5-((1-methylpyrrolidin-3-yl)oxy)quinazolin-4-yl)benzo[d]thiazol-6-amine], 10.1 to 50 nM.
